Reference: patent US9546156B2, “N-bicyclic aryl,N'-pyrazolyl urea, thiourea, guanidine cyanoguanidine compounds as TrkA kinase inhibitors” (Array BioPharma Inc., priority 2012, dated 2017)

Columns and labels:
Assay in all cases: Off-target kinase profiling (KinaseProfiler)
Format in all cases: biochemical
Conditions in all cases: 10 μM, ATP near Km
AKT1 = molecular target: T1, AKT1 (Homo sapiens, UniProt P31749)
T1 construct: purchased Millipore, Inc. (KinaseProfiler service)
Procedure: (§1) A representative compound (Example 16) of the invention was tested for off-target kinase activity at a concentration of 10 μM by Millipore, Inc. in their KinaseProfiler™ service against all the kinases available in their full kinase panel. The compound was run in duplicate at a concentration of ATP near the Km for each individual kinase according to Millipore's specifications. The results are shown in Table B. Data are reported as percent of control (POC) and are the average of the two replicates.

AKT2 = molecular target: T2, AKT2 (Homo sapiens, UniProt P31751)
T2 construct: purchased Millipore, Inc. (KinaseProfiler service)
Procedure: as §1

Axl = molecular target: T3, Axl (Homo sapiens, UniProt P30530)
T3 construct: purchased Millipore, Inc. (KinaseProfiler service)
Procedure: as §1

Bmx = molecular target: T4, Bmx (Homo sapiens, UniProt P51813)
T4 construct: purchased Millipore, Inc. (KinaseProfiler service)
Procedure: as §1

BrSK1 = molecular target: T5, BrSK1 (Homo sapiens, UniProt Q8TDC3)
T5 construct: purchased Millipore, Inc. (KinaseProfiler service)
Procedure: as §1

CDK6/cyclinD3 = molecular target: T6, CDK6/cyclinD3 (Homo sapiens, UniProt Q00534)
T6 construct: purchased Millipore, Inc. (KinaseProfiler service)
Procedure: as §1

CK2alpha2 = molecular target: T7, CK2alpha2 (Homo sapiens, UniProt P19784)
T7 construct: purchased Millipore, Inc. (KinaseProfiler service)
T7 sequence (P19784 whole entry): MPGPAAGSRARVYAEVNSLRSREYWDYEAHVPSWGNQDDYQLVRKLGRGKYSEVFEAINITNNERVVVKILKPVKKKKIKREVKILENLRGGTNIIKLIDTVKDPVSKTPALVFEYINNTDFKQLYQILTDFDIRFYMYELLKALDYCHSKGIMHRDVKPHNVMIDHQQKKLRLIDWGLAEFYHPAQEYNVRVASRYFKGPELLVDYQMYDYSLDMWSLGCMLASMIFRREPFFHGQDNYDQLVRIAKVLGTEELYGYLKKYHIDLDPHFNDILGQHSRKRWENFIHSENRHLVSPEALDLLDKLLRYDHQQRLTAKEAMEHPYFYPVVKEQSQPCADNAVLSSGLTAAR
Procedure: as §1

CLK2 = molecular target: T8, CLK2 (Homo sapiens, UniProt P49760)
T8 construct: purchased Millipore, Inc. (KinaseProfiler service)
Procedure: as §1

CLK3 = molecular target: T9, CLK3 (Homo sapiens, UniProt P49761)
T9 construct: purchased Millipore, Inc. (KinaseProfiler service)
T9 sequence (P49761 whole entry): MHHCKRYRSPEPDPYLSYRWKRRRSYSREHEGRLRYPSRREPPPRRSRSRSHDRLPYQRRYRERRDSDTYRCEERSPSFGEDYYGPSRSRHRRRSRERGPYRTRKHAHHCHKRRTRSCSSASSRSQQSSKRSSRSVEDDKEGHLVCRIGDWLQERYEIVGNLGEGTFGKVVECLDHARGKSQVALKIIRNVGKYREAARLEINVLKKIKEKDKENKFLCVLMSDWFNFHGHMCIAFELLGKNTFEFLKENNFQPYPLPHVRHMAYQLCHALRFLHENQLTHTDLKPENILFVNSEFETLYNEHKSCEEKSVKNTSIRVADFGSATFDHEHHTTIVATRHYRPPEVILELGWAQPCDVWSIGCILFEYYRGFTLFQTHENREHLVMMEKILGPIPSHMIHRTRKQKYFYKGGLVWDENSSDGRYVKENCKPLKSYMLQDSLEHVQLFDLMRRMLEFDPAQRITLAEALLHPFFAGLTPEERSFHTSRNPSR
Procedure: as §1

DYRK2 = molecular target: T10, DYRK2 (Homo sapiens, UniProt Q92630)
T10 construct: purchased Millipore, Inc. (KinaseProfiler service)
Procedure: as §1

EphA3 = molecular target: T11, EphA3 (Homo sapiens, UniProt P29320)
T11 construct: purchased Millipore, Inc. (KinaseProfiler service)
Procedure: as §1

FAK = molecular target: T12, FAK (Homo sapiens, UniProt Q05397)
T12 construct: purchased Millipore, Inc. (KinaseProfiler service)
Procedure: as §1

Fer = molecular target: T13, Fer (Homo sapiens, UniProt P16591)
T13 construct: purchased Millipore, Inc. (KinaseProfiler service)
T13 sequence (P16591 whole entry): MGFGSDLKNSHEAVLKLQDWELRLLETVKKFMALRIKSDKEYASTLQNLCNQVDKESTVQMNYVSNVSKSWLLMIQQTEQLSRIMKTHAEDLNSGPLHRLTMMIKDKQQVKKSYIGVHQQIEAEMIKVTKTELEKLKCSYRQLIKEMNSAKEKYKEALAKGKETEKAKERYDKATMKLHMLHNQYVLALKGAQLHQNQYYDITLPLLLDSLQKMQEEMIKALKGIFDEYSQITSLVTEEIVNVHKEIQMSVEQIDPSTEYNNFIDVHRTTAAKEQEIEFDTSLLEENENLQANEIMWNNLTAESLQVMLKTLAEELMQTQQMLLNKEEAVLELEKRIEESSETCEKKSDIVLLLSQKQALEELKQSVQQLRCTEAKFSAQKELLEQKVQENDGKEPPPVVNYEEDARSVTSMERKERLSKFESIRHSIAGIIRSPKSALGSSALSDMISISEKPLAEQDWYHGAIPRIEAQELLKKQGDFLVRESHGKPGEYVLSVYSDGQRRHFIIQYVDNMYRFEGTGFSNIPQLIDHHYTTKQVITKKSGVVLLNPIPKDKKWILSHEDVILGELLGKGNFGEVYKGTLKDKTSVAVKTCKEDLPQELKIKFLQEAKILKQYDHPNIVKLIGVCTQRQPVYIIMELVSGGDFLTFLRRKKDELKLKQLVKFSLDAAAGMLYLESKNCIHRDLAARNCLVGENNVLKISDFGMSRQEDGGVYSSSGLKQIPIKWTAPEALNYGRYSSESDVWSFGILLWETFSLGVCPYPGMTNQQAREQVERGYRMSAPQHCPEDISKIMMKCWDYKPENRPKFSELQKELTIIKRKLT
Procedure: as §1

Fgr = molecular target: T14, Fgr (Homo sapiens, UniProt P09769)
T14 construct: purchased Millipore, Inc. (KinaseProfiler service)
Procedure: as §1

Fms = molecular target: T15, Fms (Homo sapiens, UniProt P07333)
T15 construct: purchased Millipore, Inc. (KinaseProfiler service)
Procedure: as §1

GSK3alpha = molecular target: T16, GSK3alpha (Homo sapiens, UniProt P49840)
T16 construct: purchased Millipore, Inc. (KinaseProfiler service)
T16 sequence (P49840 whole entry): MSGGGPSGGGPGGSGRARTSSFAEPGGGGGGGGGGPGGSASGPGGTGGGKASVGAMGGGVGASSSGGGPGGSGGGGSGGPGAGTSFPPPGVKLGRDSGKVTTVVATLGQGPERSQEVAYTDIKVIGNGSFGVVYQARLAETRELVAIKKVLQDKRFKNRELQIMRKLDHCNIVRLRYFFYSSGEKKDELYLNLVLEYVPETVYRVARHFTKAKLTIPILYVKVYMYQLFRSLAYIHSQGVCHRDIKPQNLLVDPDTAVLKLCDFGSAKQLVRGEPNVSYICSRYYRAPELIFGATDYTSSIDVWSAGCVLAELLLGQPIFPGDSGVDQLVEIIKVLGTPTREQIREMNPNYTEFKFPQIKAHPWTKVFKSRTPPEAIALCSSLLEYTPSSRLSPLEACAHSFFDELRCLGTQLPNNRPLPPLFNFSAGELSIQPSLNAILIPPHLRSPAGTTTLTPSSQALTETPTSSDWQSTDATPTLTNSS
Procedure: as §1

Haspin = molecular target: T17, Haspin (Homo sapiens, UniProt Q8TF76)
T17 construct: purchased Millipore, Inc. (KinaseProfiler service)
T17 sequence (Q8TF76 whole entry): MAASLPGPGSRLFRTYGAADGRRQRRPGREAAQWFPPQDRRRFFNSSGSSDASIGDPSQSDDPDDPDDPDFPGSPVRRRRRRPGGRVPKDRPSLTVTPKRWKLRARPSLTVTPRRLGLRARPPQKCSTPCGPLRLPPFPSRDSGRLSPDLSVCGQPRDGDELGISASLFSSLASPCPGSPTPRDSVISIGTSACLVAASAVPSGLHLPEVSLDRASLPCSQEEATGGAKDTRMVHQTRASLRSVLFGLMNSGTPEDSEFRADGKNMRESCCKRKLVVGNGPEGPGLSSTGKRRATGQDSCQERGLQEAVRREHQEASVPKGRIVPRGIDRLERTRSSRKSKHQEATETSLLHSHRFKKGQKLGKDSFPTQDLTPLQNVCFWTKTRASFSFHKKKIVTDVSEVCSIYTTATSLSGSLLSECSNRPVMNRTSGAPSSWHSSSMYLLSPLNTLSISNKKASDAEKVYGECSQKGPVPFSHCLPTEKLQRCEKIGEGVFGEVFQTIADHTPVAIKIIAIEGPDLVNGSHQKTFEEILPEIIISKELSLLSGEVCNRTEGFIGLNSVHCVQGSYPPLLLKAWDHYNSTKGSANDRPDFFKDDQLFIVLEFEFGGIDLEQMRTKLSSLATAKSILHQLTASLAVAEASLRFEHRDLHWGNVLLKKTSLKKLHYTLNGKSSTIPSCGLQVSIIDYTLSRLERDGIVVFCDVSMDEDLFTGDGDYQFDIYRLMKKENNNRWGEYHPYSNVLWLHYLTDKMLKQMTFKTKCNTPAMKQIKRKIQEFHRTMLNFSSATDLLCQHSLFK
Procedure: as §1

IR Activated = molecular target: T18, IR Activated (Homo sapiens, UniProt P06213)
T18 construct: purchased Millipore, Inc. (KinaseProfiler service)
T18 sequence (P06213 1005-1310 limits assumed): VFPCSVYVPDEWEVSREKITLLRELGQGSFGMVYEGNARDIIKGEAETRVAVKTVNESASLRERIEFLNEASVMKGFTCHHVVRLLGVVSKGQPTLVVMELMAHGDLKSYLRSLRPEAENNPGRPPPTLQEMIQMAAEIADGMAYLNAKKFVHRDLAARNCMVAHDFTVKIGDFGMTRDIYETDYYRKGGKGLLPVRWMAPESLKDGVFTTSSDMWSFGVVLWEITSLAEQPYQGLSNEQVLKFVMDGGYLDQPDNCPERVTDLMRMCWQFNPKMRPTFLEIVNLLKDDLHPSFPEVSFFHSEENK
Procedure: as §1

JNK1alpha1 = molecular target: T19, JNK1alpha1 (Homo sapiens, UniProt P45983)
T19 construct: purchased Millipore, Inc. (KinaseProfiler service)
Procedure: as §1

JNK3 = molecular target: T20, JNK3 (Homo sapiens, UniProt P53779)
T20 construct: purchased Millipore, Inc. (KinaseProfiler service)
Procedure: as §1

Lck = molecular target: T21, Lck (Homo sapiens, UniProt P06239)
T21 construct: purchased Millipore, Inc. (KinaseProfiler service)
Procedure: as §1

MEK1 = molecular target: T22, MEK1 (Homo sapiens, UniProt Q02750)
T22 construct: purchased Millipore, Inc. (KinaseProfiler service)
T22 sequence (Q02750 whole entry): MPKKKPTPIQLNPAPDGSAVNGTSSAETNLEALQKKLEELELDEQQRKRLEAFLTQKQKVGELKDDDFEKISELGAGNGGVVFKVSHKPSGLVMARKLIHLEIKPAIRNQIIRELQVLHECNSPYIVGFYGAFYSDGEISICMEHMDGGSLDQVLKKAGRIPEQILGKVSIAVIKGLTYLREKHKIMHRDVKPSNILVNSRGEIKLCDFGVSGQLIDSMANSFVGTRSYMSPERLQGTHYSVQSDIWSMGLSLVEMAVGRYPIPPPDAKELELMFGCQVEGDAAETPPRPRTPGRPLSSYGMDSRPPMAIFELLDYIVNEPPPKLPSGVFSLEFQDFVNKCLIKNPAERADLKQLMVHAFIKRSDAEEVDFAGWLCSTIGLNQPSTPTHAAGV
Procedure: as §1

MELK = molecular target: T23, MELK (Homo sapiens, UniProt Q14680)
T23 construct: purchased Millipore, Inc. (KinaseProfiler service)
Procedure: as §1

MKK6 = molecular target: T24, MKK6 (Homo sapiens, UniProt P52564)
T24 construct: purchased Millipore, Inc. (KinaseProfiler service)
T24 sequence (P52564 whole entry): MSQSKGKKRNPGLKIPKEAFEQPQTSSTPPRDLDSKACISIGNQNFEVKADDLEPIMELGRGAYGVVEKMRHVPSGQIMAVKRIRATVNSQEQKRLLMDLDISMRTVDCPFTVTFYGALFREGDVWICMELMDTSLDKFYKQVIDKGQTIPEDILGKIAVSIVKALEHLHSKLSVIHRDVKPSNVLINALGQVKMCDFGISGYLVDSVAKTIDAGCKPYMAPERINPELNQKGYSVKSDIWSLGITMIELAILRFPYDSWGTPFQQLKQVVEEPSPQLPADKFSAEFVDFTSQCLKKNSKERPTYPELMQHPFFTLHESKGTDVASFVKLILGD
Procedure: as §1

MST2 = molecular target: T25, MST2 (Homo sapiens, UniProt Q13188)
T25 construct: purchased Millipore, Inc. (KinaseProfiler service)
T25 sequence (Q13188 whole entry): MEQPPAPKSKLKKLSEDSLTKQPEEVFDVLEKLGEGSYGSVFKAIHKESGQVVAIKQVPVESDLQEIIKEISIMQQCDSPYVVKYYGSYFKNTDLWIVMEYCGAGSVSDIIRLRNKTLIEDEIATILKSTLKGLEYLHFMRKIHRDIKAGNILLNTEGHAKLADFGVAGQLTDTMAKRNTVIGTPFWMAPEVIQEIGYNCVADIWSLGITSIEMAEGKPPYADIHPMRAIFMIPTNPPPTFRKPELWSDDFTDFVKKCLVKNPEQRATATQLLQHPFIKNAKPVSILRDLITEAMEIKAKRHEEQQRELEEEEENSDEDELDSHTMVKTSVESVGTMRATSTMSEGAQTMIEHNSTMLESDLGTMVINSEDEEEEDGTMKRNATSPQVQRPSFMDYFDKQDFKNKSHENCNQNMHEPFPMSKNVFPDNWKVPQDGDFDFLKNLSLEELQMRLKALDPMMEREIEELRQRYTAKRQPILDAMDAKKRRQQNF
Procedure: as §1

NLK = molecular target: T26, NLK (Homo sapiens, UniProt Q9UBE8)
T26 construct: purchased Millipore, Inc. (KinaseProfiler service)
Procedure: as §1

PKCzeta = molecular target: T27, PKCzeta (Homo sapiens, UniProt Q05513)
T27 construct: purchased Millipore, Inc. (KinaseProfiler service)
Procedure: as §1

PTK6 = molecular target: T28, PTK6 (Homo sapiens, UniProt Q13882)
T28 construct: purchased Millipore, Inc. (KinaseProfiler service)
Procedure: as §1

Plk1 = molecular target: T29, Plk1 (Homo sapiens, UniProt P53350)
T29 construct: purchased Millipore, Inc. (KinaseProfiler service)
Procedure: as §1

Plk3 = molecular target: T30, Plk3 (Homo sapiens, UniProt Q9H4B4)
T30 construct: purchased Millipore, Inc. (KinaseProfiler service)
Procedure: as §1

PrKX = molecular target: T31, PrKX (Homo sapiens, UniProt P51817)
T31 construct: purchased Millipore, Inc. (KinaseProfiler service)
Procedure: as §1

ROCK-I = molecular target: T32, ROCK-I (Homo sapiens, UniProt Q13464)
T32 construct: purchased Millipore, Inc. (KinaseProfiler service)
Procedure: as §1

Rsk3 = molecular target: T33, Rsk3 (Homo sapiens, UniProt Q15349)
T33 construct: purchased Millipore, Inc. (KinaseProfiler service)
Procedure: as §1

TAO1 = molecular target: T34, TAO1 (Homo sapiens, UniProt Q7L7X3)
T34 construct: purchased Millipore, Inc. (KinaseProfiler service)
Procedure: as §1

TAO3 = molecular target: T35, TAO3 (Homo sapiens, UniProt Q9H2K8)
T35 construct: purchased Millipore, Inc. (KinaseProfiler service)
Procedure: as §1

TSSK1 = molecular target: T36, TSSK1 (Homo sapiens, UniProt Q9BXA7)
T36 construct: purchased Millipore, Inc. (KinaseProfiler service)
Procedure: as §1

TrkA = molecular target: T37, TrkA (Homo sapiens, UniProt P04629)
T37 construct: purchased Millipore, Inc. (KinaseProfiler service)
Procedure: as §1

Yes = molecular target: T38, Yes (Homo sapiens, UniProt P07947)
T38 construct: purchased Millipore, Inc. (KinaseProfiler service)
Procedure: as §1

mTOR = molecular target: T39, mTOR (Homo sapiens, UniProt P42345)
T39 construct: purchased Millipore, Inc. (KinaseProfiler service)
Procedure: as §1

mTOR/FKBP12 = molecular target: T40, mTOR/FKBP12 (Homo sapiens, UniProt P42345)
T40 construct: purchased Millipore, Inc. (KinaseProfiler service)
Procedure: as §1

p38delta = molecular target: T41, p38delta (Homo sapiens, UniProt O15264)
T41 construct: purchased Millipore, Inc. (KinaseProfiler service)
Procedure: as §1

p70S6K = molecular target: T42, p70S6K (Homo sapiens, UniProt P23443)
T42 construct: purchased Millipore, Inc. (KinaseProfiler service)
T42 sequence (P23443 whole entry): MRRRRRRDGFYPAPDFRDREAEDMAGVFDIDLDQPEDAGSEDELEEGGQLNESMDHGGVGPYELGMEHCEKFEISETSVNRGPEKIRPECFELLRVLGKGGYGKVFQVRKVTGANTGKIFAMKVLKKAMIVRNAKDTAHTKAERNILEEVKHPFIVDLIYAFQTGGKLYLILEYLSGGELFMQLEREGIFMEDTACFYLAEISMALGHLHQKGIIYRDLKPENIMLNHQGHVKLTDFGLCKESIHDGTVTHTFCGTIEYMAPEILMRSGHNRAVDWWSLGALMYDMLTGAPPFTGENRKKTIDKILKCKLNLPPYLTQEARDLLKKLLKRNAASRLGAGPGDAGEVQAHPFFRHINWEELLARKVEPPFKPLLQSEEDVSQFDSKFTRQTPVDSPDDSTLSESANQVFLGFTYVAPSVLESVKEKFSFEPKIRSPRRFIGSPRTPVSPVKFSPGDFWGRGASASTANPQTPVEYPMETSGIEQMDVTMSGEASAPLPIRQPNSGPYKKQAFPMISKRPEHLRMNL
Procedure: as §1

## COCc1ccc2cccc(NC(=O)Nc3c(C)c(-c4cnn(C)c4)nn3-c3ccccc3)c2c1 [Example 16, 1-(1′,4-dimethyl-1-phenyl-1H,1′H-[3,4′-bipyrazol]-5-yl)-3-(7-(methoxymethyl)naphthalen-1-yl)urea]
AKT1
  Avg POC: 129 POC
AKT2
  Avg POC: 217.5 POC
Axl
  Avg POC: 103.5 POC
Bmx
  Avg POC: 125 POC
BrSK1
  Avg POC: 118 POC
CDK6/cyclinD3
  Avg POC: 121 POC
CK2alpha2
  Avg POC: 101 POC
CLK2
  Avg POC: 135 POC
CLK3
  Avg POC: 107 POC
DYRK2
  Avg POC: 99 POC
EphA3
  Avg POC: 139.5 POC
FAK
  Avg POC: 113.5 POC
Fer
  Avg POC: 122 POC
Fgr
  Avg POC: 116 POC
Fms
  Avg POC: 125.5 POC
GSK3alpha
  Avg POC: 125 POC
Haspin
  Avg POC: 137.5 POC
IR Activated
  Avg POC: 102.5 POC
JNK1alpha1
  Avg POC: 111.5 POC
JNK3
  Avg POC: 132 POC
Lck
  Avg POC: 103 POC
MEK1
  Avg POC: 114 POC
MELK
  Avg POC: 135.5 POC
MKK6
  Avg POC: 94.5 POC
MST2
  Avg POC: 115 POC
NLK
  Avg POC: 113.5 POC
PKCzeta
  Avg POC: 123 POC
PTK6
  Avg POC: 114.5 POC
Plk1
  Avg POC: 95 POC
Plk3
  Avg POC: 103.5 POC
PrKX
  Avg POC: 134 POC
ROCK-I
  Avg POC: 118 POC
Rsk3
  Avg POC: 106.5 POC
TAO1
  Avg POC: 104.5 POC
TAO3
  Avg POC: 89.5 POC
TSSK1
  Avg POC: 104.5 POC
TrkA
  Avg POC: 2 POC
Yes
  Avg POC: 107.5 POC
mTOR
  Avg POC: 110 POC
mTOR/FKBP12
  Avg POC: 113 POC
p38delta
  Avg POC: 121 POC
p70S6K
  Avg POC: 218 POC
